This note sets out measurements from PubChem BioAssay (NCI).

Among the test systems are EKVX NSCLC; SNB-75 CNS; HL-60(TB) leukemia; OVCAR-3 ovarian; UACC-257 melanoma; TK-10 renal; CAKI-1 renal; OVCAR-5 ovarian; SN12C renal; SK-MEL-28 melanoma.
What all share (assay): NCI-60 cell line screen, 48 h

Structures are written as SMILES.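 Cultured in 96-well plates, cells were exposed to test compound for 48 hours across five concentrations. Abbreviation: GI50, concentration required for 50% inhibition of growth. TGI: concentration producing complete growth inhibition.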

As for `C[C@@H](Oc1cc(-n2cnc3ccc(OCC4CCN(C)CC4)cc32)sc1C(N)=O)c1ccccc1C(F)(F)F`, the GI50 in the experiment on EKVX NSCLC is 0.653 µM; in the experiment with SNB-75 CNS, 0.0853 µM; in the experiment with HL-60(TB) leukemia, 0.0708 µM; in the experiment with OVCAR-3 ovarian it was 0.0801 µM; with UACC-257 melanoma, 0.179 µM; in the experiment on TK-10 renal, 0.427 µM. Further, the GI50 in the experiment with CAKI-1 renal is 1.91 µM; in the experiment with OVCAR-5 ovarian it was 0.114 µM; in the experiment with SN12C renal it was 0.319 µM; in the experiment with SK-MEL-28 melanoma, 0.637 µM. In addition, the TGI came out at 5.04 µM in the experiment on EKVX NSCLC; 1.42 µM in the experiment on SNB-75 CNS; 1.08 µM with HL-60(TB) leukemia; 2.86 µM with OVCAR-3 ovarian; 4.51 µM with UACC-257 melanoma; 3.98 µM with TK-10 renal. Moreover, the TGI in the experiment on CAKI-1 renal came out at 5.23 µM; with OVCAR-5 ovarian it was 3.81 µM; in the experiment with SN12C renal, 4.28 µM; with SK-MEL-28 melanoma it was 4.58 µM.

Turning to `CC(=O)C(CN1CCOCC1)C(c1ccccc1)c1c(O)c2ccccc2oc1=O` (stereo not given), the TGI in the experiment with EKVX NSCLC, with SNB-75 CNS, in the experiment on HL-60(TB) leukemia, with OVCAR-3 ovarian, in the experiment with UACC-257 melanoma and with TK-10 renal was above 100 µM each time. In addition, the TGI with CAKI-1 renal, in the experiment on OVCAR-5 ovarian, in the experiment on SN12C renal and in the experiment on SK-MEL-28 melanoma was above 100 µM in each case.

As to `C#CCSc1nnnn1-c1ccc(Br)c(C)c1`, the GI50 with EKVX NSCLC is 4.86 µM; in the experiment on SNB-75 CNS it was 25.7 µM; in the experiment with HL-60(TB) leukemia, 27.3 µM; in the experiment with OVCAR-3 ovarian, 23.2 µM; in the experiment with UACC-257 melanoma, 35.2 µM; in the experiment with TK-10 renal it was 35.4 µM. Moreover, the GI50 in the experiment with CAKI-1 renal is 2.82 µM; with OVCAR-5 ovarian, 69.4 µM; with SN12C renal, 19.1 µM; with SK-MEL-28 melanoma, 50.1 µM. The TGI in the experiment with EKVX NSCLC is 97.3 µM; in the experiment on SNB-75 CNS, above 100 µM; in the experiment on HL-60(TB) leukemia, 87 µM; in the experiment with OVCAR-3 ovarian, 95.8 µM; with UACC-257 melanoma, above 100 µM; in the experiment on TK-10 renal it was above 100 µM. The TGI in the experiment with CAKI-1 renal is 17.6 µM; with OVCAR-5 ovarian it was above 100 µM; in the experiment with SN12C renal, above 100 µM; in the experiment on SK-MEL-28 melanoma, above 100 µM.

`c1ccc(CNc2nc(Nc3ccc(-c4nc5ccccc5[nH]4)cc3)c3cn[nH]c3n2)cc1`: the GI50 was 3.27 µM in the experiment with EKVX NSCLC; 5.12 µM in the experiment with SNB-75 CNS; 2.54 µM with HL-60(TB) leukemia; 1.61 µM with OVCAR-3 ovarian; 1.61 µM in the experiment with UACC-257 melanoma; 2.93 µM with TK-10 renal. Further, the GI50 in the experiment on CAKI-1 renal was 2.13 µM; in the experiment with OVCAR-5 ovarian, 2.52 µM; in the experiment with SN12C renal it was 2.75 µM; in the experiment with SK-MEL-28 melanoma it was 2.15 µM. The TGI was found to be 23.6 µM in the experiment with EKVX NSCLC; 47.1 µM with SNB-75 CNS; 7.44 µM in the experiment on HL-60(TB) leukemia; 3.3 µM with OVCAR-3 ovarian; 3.4 µM in the experiment with UACC-257 melanoma; 8.35 µM with TK-10 renal. Further, the TGI is 5.47 µM in the experiment with CAKI-1 renal, 6.86 µM in the experiment on OVCAR-5 ovarian, 7.37 µM with SN12C renal and 6.68 µM with SK-MEL-28 melanoma.

Consider `COc1cc(-c2cn(-c3ccc(Cl)cc3)c(=O)n2-c2ccccc2)cc(OC)c1OC`, for which the GI50 was above 100 µM in the experiment on EKVX NSCLC; 5.51 µM in the experiment on SNB-75 CNS; 3.35 µM with HL-60(TB) leukemia; above 100 µM with OVCAR-3 ovarian; above 82.6 µM in the experiment with UACC-257 melanoma; above 100 µM with TK-10 renal. Further, the GI50 is above 100 µM in the experiment with CAKI-1 renal, above 100 µM in the experiment with OVCAR-5 ovarian, above 100 µM in the experiment on SN12C renal and 56.4 µM in the experiment with SK-MEL-28 melanoma. Also, the TGI in the experiment with EKVX NSCLC is above 100 µM; in the experiment with SNB-75 CNS it was 41.8 µM; in the experiment on HL-60(TB) leukemia, above 38.5 µM; in the experiment on OVCAR-3 ovarian it was above 100 µM; in the experiment on UACC-257 melanoma it was above 100 µM; in the experiment on TK-10 renal, above 100 µM. The TGI in the experiment with CAKI-1 renal, in the experiment with OVCAR-5 ovarian, in the experiment on SN12C renal and in the experiment with SK-MEL-28 melanoma was above 100 µM in each case.

Regarding `CC[C@]12C=CCN3CC[C@]4(C(=C(C(=O)OC)C1)Nc1ccccc14)[C@@H]32`, the GI50 in the experiment on EKVX NSCLC is 5.99 µM; in the experiment with SNB-75 CNS, 2.15 µM; in the experiment with HL-60(TB) leukemia, 3.18 µM; in the experiment on OVCAR-3 ovarian it was 2.45 µM; in the experiment on UACC-257 melanoma, 5.06 µM; with TK-10 renal it was 4.86 µM. Moreover, the GI50 is 4.7 µM with CAKI-1 renal, 6.55 µM in the experiment with OVCAR-5 ovarian, 3.62 µM with SN12C renal and 4.49 µM with SK-MEL-28 melanoma. The TGI was found to be 22.4 µM in the experiment with EKVX NSCLC; 7.93 µM in the experiment on SNB-75 CNS; 11.5 µM with HL-60(TB) leukemia; 7.51 µM with OVCAR-3 ovarian; 26.5 µM in the experiment with UACC-257 melanoma; 17.6 µM with TK-10 renal. Besides, the TGI is 17.3 µM in the experiment with CAKI-1 renal, 21.2 µM in the experiment with OVCAR-5 ovarian, 18.2 µM with SN12C renal and 17.9 µM with SK-MEL-28 melanoma.

Take `CCN(CC)c1ccc(/C=C/C2=[N+](C)c3ccccc3C2(C)C)cc1`: the GI50 in the experiment with EKVX NSCLC is 0.235 µM; with SNB-75 CNS it was 0.34 µM; in the experiment on HL-60(TB) leukemia, 0.0906 µM; with OVCAR-3 ovarian, 0.281 µM; in the experiment with UACC-257 melanoma, 0.375 µM; in the experiment with TK-10 renal, 0.373 µM. The GI50 in the experiment with CAKI-1 renal was 0.852 µM; in the experiment with OVCAR-5 ovarian it was 1.01 µM; with SN12C renal it was 0.342 µM; in the experiment with SK-MEL-28 melanoma, 0.61 µM. Besides, the TGI in the experiment on EKVX NSCLC is 14 µM; in the experiment with SNB-75 CNS, 17.3 µM; in the experiment on HL-60(TB) leukemia it was above 100 µM; in the experiment on OVCAR-3 ovarian, 13.2 µM; in the experiment with UACC-257 melanoma it was 14.6 µM; with TK-10 renal, 10.6 µM. The TGI with CAKI-1 renal stood at 12.6 µM; with OVCAR-5 ovarian it was 23.7 µM; in the experiment with SN12C renal, 13.8 µM; with SK-MEL-28 melanoma, 9.48 µM.
